Test results published in patent US20110098269A1, “Substituted Pyridazinone Derivatives as Histamine-3 (H3) Receptor Ligands” (Cephalon, Inc., priority 2008, published 2011).

Columns and labels:
human H3 receptor = target: T1, human H3 receptor (Homo sapiens, UniProt Q9Y5N1); assay: Human H3 radioligand binding ([3H]-N-alpha-methylhistamine, CHO cell membranes); details: Human H3 binding constant, class symbols; read-out: hH3 Ki
T1 construct: expressed in transfected cells
Method: (§1) Methods: CHO cells stably expressing the human H3 receptor (GenBank: NM_007232) were harvested and cell pellets were frozen (−80° C.). Cell pellets were resuspended in 5 mM Tris-HCl, pH 7.5 with 5 nM EDTA and a cocktail of protease inhibitors (Complete Protease Inhibitor Tablets, Roche Diagnostics). Cells were disrupted using a polytron cell homogenizer and the suspension was centrifuged at 1000×g for 10 minutes at 4° C. The pellet was discarded and the supernatant centrifuged at 40,000×g for 30 min at 4° C. This membrane pellet was washed in membrane buffer containing 50 mM Tris-HCl, pH 7.5 with 0.6 mM EDTA, 5 mM MgCl2 and protease inhibitors, recentrifuged as above and the final pellet resuspended in membrane buffer plus 250 mM sucrose and frozen at −80° C.
(§2) Radioligand Binding. Membranes were resuspended in 50 mM Tris HCl (pH 7.4), 5 mM MgCl2, 0.1% BSA. The membrane suspensions (10 μg protein per well) were incubated in a 96 well microtiter plate with [^3H]-N-alpha-methylhistamine (approximately 1 nM final concentration), test compounds at various concentrations (0.01 nM-30 μM) and scintillation proximity beads (Perkin Elmer, FlashBlueGPCR Scintillating Beads) in a final volume of 80 μl for 4 hours at room temperature, protected from light. Non-specific binding was determined in the presence of 10 μM clobenpropit. Radioligand bound to receptor, and therefore in proximity to the scintillation beads, was measured using a MicroBeta scintillation counter.

[1] = target: T2, rat histamine H3 receptor (Rattus norvegicus, UniProt Q9QYN8); assay: Rat H3 radioligand binding ([3H]-N-alpha-methylhistamine, CHO-A3 cell membranes); details: Rat H3 binding constant, class symbols; read-out: rH3 Ki
T2 construct: encoding the entire 445-amino-acid rat histamine H3 receptor; expressed in transfected cells
T2 sequence (Q9QYN8 whole entry): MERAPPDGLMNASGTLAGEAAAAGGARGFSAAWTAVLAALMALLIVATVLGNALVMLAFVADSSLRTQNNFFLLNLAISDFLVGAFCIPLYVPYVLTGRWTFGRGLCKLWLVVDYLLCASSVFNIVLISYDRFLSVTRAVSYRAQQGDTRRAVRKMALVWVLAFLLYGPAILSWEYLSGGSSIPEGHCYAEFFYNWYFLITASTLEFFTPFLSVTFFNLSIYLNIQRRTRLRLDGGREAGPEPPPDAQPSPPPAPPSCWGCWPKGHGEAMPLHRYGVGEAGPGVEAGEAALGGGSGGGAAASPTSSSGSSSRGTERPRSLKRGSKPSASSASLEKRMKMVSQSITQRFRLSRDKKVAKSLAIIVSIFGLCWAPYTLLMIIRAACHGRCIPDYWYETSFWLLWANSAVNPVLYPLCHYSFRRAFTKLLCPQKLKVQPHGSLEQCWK
Text: as §1, with “Cell line development and membrane preparation. The rat” for “Methods: CHO cells stably expressing the human”, “cDNA was PCR amplified from reverse-transcribed RNA pooled from rat thalamus, hypothalamus, striatum and prefrontal cortex with a sequence corresponding to by #338-1672 of Genbank file #NM_053506, encoding the entire 445-amino-acid rat histamine H3 receptor. This was engineered into the pIRES-neo3 mammalian expression vector, which was stably transfected into the CHO-A3 cell line (Euroscreen, Belgium), followed by clonal selection by limiting dilution. Cells” for “(GenBank: NM_007232)”
as §2

T1 sequence (Q9Y5N1 whole entry): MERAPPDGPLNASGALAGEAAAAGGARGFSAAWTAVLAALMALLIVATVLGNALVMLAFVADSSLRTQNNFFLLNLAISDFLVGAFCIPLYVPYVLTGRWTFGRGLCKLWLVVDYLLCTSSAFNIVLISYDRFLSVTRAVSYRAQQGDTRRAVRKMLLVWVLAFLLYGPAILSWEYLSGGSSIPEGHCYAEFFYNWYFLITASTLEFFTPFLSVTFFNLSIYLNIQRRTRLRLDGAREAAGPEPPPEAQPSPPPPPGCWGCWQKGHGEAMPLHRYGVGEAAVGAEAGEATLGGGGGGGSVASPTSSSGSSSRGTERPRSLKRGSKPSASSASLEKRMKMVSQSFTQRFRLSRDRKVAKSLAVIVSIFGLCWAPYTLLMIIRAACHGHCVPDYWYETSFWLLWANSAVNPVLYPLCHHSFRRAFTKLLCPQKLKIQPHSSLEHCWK

Ki (human H3 receptor) [nM]	melting point [°C]	Ki [1] [nM]	SMILES
100 to 1000	177 to 179	100 to 1000	Cn1nc(-c2ccc(C(=O)N3CCN(C4CCCC4)CC3)cc2)ccc1=O [Example 46, 6-[4-(4-Cyclopentyl-piperazine-1-carbonyl)-phenyl]-2-methyl-2H-pyridazin-3-one]
100 to 1000	131 to 132	100 to 1000	CC(C)N1CCN(C(=O)c2ccc(-c3ccc(=O)n(C)n3)cc2)CC1 [Example 47, 6-[4-(4-Isopropyl-piperazine-1-carbonyl)-phenyl]-2-methyl-2H-pyridazin-3-one]
< 100	62 to 66	< 100	O=C(c1ccc(-c2ccc(=O)[nH]n2)cc1)N1CCC[C@H]1CN1CCCC1 [Example 50, 6-[4-((S)-2-Pyrrolidin-1-ylmethyl-pyrrolidine-1-carbonyl)-phenyl]-2H-pyridazin-3-one]
< 100	159 to 161	< 100	C[C@@H]1CCCN1CCc1ccc(-c2ccc(=O)[nH]n2)cc1 [Example 51, 6-{4-[2-((R)-2-Methyl-pyrrolidin-1-yl)-ethyl]-phenyl}-2H-pyridazin-3-one]

Second part, the compound before the results:

SMILES	Ki (human H3 receptor) [nM]	melting point [°C]	Ki [1] [nM]
O=c1ccc(-c2ccc(Oc3ccc4c(c3)CCN(C3CCC3)CC4)nc2)n[nH]1 [Example 27, 6-[6-(3-Cyclobutyl-2,3,4,5-tetrahydro-1H-benzo[d]azepin-7-yloxy)-pyridin-3-yl]-2H-pyridazin-3-one]	< 100	215 to 220	< 100
O=c1ccc(-c2ccc(Oc3ccc4c(c3)CCN(C3CCC3)CC4)nc2)nn1-c1ccccn1 [Example 28, 6-[6-(3-Cyclobutyl-2,3,4,5-tetrahydro-1H-benzo[d]azepin-7-yloxy)-pyridin-3-yl]-2-pyridin-2-yl-2H-pyridazin-3-one]	< 100	178 to 182	< 100
CC(C)n1nc(-c2ccc(Oc3ccc4c(c3)CCN(C3CCC3)CC4)nc2)ccc1=O [Example 29, 6-[6-(3-Cyclobutyl-2,3,4,5-tetrahydro-1H-benzo[d]azepin-7-yloxy)-pyridin-3-yl]-2-isopropyl-2H-pyridazin-3-one]	< 100	70 to 73	< 100
O=C1NN=C(c2ccc3c(c2)CCN(C2CCC2)CC3)C2CCCC12 (stereo not drawn) [Example 42, 4-(3-Cyclobutyl-2,3,4,5-tetrahydro-1H-benzo[d]azepin-7-yl)-2,4a,5,6,7,7a-hexahydro-cyclopenta[d]pyridazin-1-one]	< 100	198 to 201	< 100
O=C1NN=C(c2ccc3c(c2)CCN(C2CCC2)CC3)C2CCCCC12 (stereo not drawn) [Example 44, 4-(3-Cyclobutyl-2,3,4,5-tetrahydro-1H-benzo[d]azepin-7-yl)-4-a,5,6,7,8,8a-hexahydro-2H-phthalazin-1-one]	< 100	223 to 225	< 100
